Results published in patent US20260285850A1, “SUBSTITUTED OXAZOLIDINONES AND IMIDAZOLINONES AS HERBICIDES” (FMC CORPORATION, priority 2023, published 2026).

How the values were obtained:
Type in all cases: in vivo
[1] = system: sedge, umbrella (small-flower umbrella sedge, Cyperus difformis); test: Test B flooded paddy test, visual plant response rating 0-100; conditions: 250 g ai/ha, Flood, applied to paddy water, evaluated after 13 days
In short: (§1)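 Each species was raised to two leaves before flooding to a 3 cm depth and dosing the water with compound. Injury was assessed by eye after 13 days under greenhouse conditions.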

rice (Oryza sativa) = test: as above; conditions: 250 g ai/ha, Flood, applied to paddy water, evaluated after 13 days
In short: as §1

[2] = system: barnyardgrass (Echinochloa crusgalli); test: as above; conditions: 250 g ai/ha, Flood, applied to paddy water, evaluated after 13 days
In short: as §1

[3] = system: ducksalad (Heteranthera limosa); test: as above; conditions: 250 g ai/ha, Flood, applied to paddy water, evaluated after 13 days
In short: as §1

[4] = system: green foxtail (Setaria viridis); test: Test A preemergence soil spray, visual injury rating 0-100; conditions: 10 days
In short: (§2)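 Directed preemergence spray onto seeded soil or postemergence spray onto 2-10 cm plants (loam plus sand); compound carried in surfactant-containing non-phytotoxic solvent. Injury rated by eye after 10 d greenhouse growth; 0 = no effect, 100 = complete control.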

[5] = system: oat, wild (wild oat, Avena fatua); test: as above; conditions: 10 days
In short: as §2

kochia (Bassia scoparia) [6] = test: as above; conditions: 16 g ai/ha, 0 to 100 scale, 10 days
In short: as §2

[7] = system: ragweed (common ragweed, Ambrosia artemisiifolia); test: as above; conditions: 10 days
In short: as §2

corn (Zea mays) [8] = test: as above; conditions: 10 days
In short: as §2

[9] = system: palmer (palmer amaranth, palmer pigweed, Amaranthus palmeri); test: as above; conditions: 10 days
In short: as §2

[10] = system: wheat (Triticum aestivum); test: as above; conditions: 10 days
In short: as §2

[11] = system: ryegrass, Italian (italian ryegrass, Lolium multiflorum); test: as above; conditions: 10 days
In short: as §2

soybean (Glycine max) [12] = test: as above; conditions: 10 days
In short: as §2

[13] = system: blackgrass (Alopecurus myosuroides); test: as above; conditions: 10 days
In short: as §2

[14] = system: barnyardgrass (Echinochloa crus-galli); test: as above; conditions: 10 days
In short: as §2

[15] = system: green foxtail (Setaria viridis); test: Test A postemergence application, visual injury rating 0-100
In short: as §2

[16] = system: oat, wild (wild oat, Avena fatua); test: as above
In short: as §2

kochia (Bassia scoparia) [17] = test: as above
In short: as §2

[18] = system: ragweed (common ragweed, Ambrosia artemisiifolia); test: as above
In short: as §2

[19] = system: galium (catchweed bedstraw, Galium aparine); test: as above
In short: as §2

corn (Zea mays) [20] = test: as above
In short: as §2

[21] = system: palmer (palmer amaranth, palmer pigweed, Amaranthus palmeri); test: as above
In short: as §2

[22] = system: wheat (Triticum aestivum); test: as above
In short: as §2

[23] = system: ryegrass, Italian (italian ryegrass, Lolium multiflorum); test: as above
In short: as §2

soybean (Glycine max) [24] = test: as above
In short: as §2

[25] = system: blackgrass (Alopecurus myosuroides); test: as above
In short: as §2

[26] = system: barnyardgrass (Echinochloa crus-galli); test: as above
In short: as §2

[27] = system: horseweed (Erigeron canadensis); test: as above
In short: as §2

[28] = 62 g ai/ha, 0 = no effect, 100 = complete control
[29] = 62 g ai/ha, postemergence, 10 days, 0 = no effect, 100 = complete control
[30] = Postemergence, 16 g ai/ha, greenhouse 10 days, 0 no effect, 100 complete control

For `CCOC(=O)C1C=CC(NC(=O)C2(C)CN(c3cccc(OC(F)(F)F)c3)C(=O)O2)C1` (stereo not drawn) [Compound 102], the “Plant response rating, Sedge, Umbrella (0 to 100 scale, 0 is no effect and 100 is complete control)” value [1] was 0, the “Plant response rating, Rice (0 to 100 scale, 0 is no effect and 100 is complete control)” value (rice (Oryza sativa)) was 0 and the “Plant response rating, Barnyardgrass (0 to 100 scale, 0 is no effect and 100 is complete control)” value [2] was 0. The “Plant response rating, Ducksalad (0 to 100 scale, 0 is no effect and 100 is complete control)” value [3] was 0, the “Foxtail, Green plant response rating” value ([4]; 16 g ai/ha, 0 to 100 scale) was 0 and the “Foxtail, Green plant response rating (0-100)” value [4, 28] was 10. For the same compound, the “Oat, Wild plant response rating” value ([5]; 16 g ai/ha, 0 to 100 scale) was 0, the “Oat, Wild plant response rating (0-100)” value [5, 28] was 30 and the “Kochia plant response rating” value (kochia (Bassia scoparia) [6]) was 0. The “Ragweed plant response rating” value ([7]; 16 g ai/ha, 0 to 100 scale) was 0, the “Ragweed plant response rating (0-100)” value [7, 28] was 0 and the “Corn plant response rating” value (corn (Zea mays) [8]; 16 g ai/ha, 0 to 100 scale) was 0. The “Corn plant response rating (0-100)” value (corn (Zea mays) [8]; [28]) was 10, the “Pigweed, Palmer plant response rating” value ([9]; 16 g ai/ha, 0 to 100 scale) was 0 and the “Pigweed, Palmer plant response rating (0-100)” value [9, 28] was 0. For the same compound, the “Wheat plant response rating” value ([10]; 16 g ai/ha, 0 to 100 scale) was 0, the “Wheat plant response rating (0-100)” value [10, 28] was 20 and the “Ryegrass, Italian plant response rating” value ([11]; 16 g ai/ha, 0 to 100 scale) was 0. For the same compound, the “Ryegrass, Italian plant response rating (0-100)” value [11, 28] was 70, the “Soybean plant response rating” value (soybean (Glycine max) [12]; 16 g ai/ha, 0 to 100 scale) was 0 and the “Soybean plant response rating (0-100)” value (soybean (Glycine max) [12]; [28]) was 0. For the same compound, the “Blackgrass plant response rating” value ([13]; 16 g ai/ha, 0 to 100 scale) was 0, the “Blackgrass plant response rating (0-100)” value [13, 28] was 30 and the “Barnyardgrass plant response rating” value ([14]; 16 g ai/ha, 0 to 100 scale) was 0. For the same compound, the “Barnyardgrass plant response rating (0-100)” value [14, 28] was 0, the “Foxtail, Green plant response rating (0-100)” value [15, 29] was 20 and the “Foxtail, Green plant response rating (0 to 100 scale)” value [15, 30] was 10. The “Oat, Wild plant response rating (0-100)” value [16, 29] was 60, the “Oat, Wild plant response rating (0 to 100 scale)” value [16, 30] was 20 and the “Kochia plant response rating (0-100)” value (kochia (Bassia scoparia) [17]; [29]) was 70. The “Kochia plant response rating (0 to 100 scale)” value (kochia (Bassia scoparia) [17]; [30]) was 0, the “Ragweed plant response rating (0-100)” value [18, 29] was 20 and the “Ragweed plant response rating (0 to 100 scale)” value [18, 30] was 0. For the same compound, the “Galium plant response rating (0-100)” value [19, 29] was 70, the “Galium plant response rating (0 to 100 scale)” value [19, 30] was 50 and the “Corn plant response rating (0-100)” value (corn (Zea mays) [20]; [29]) was 60. For the same compound, the “Corn plant response rating (0 to 100 scale)” value (corn (Zea mays) [20]; [30]) was 0, the “Pigweed, Palmer plant response rating (0-100)” value [21, 29] was 10 and the “Pigweed, Palmer plant response rating (0 to 100 scale)” value [21, 30] was 0. The “Wheat plant response rating (0-100)” value [22, 29] was 20, the “Wheat plant response rating (0 to 100 scale)” value [22, 30] was 20 and the “Ryegrass, Italian plant response rating (0-100)” value [23, 29] was 70. For the same compound, the “Ryegrass, Italian plant response rating (0 to 100 scale)” value [23, 30] was 20, the “Soybean plant response rating (0-100)” value (soybean (Glycine max) [24]; [29]) was 50 and the “Soybean plant response rating (0 to 100 scale)” value (soybean (Glycine max) [24]; [30]) was 30. For the same compound, the “Blackgrass plant response rating (0-100)” value [25, 29] was 90, the “Blackgrass plant response rating (0 to 100 scale)” value [25, 30] was 50 and the “Barnyardgrass plant response rating (0-100)” value [26, 29] was 80. For the same compound, the “Barnyardgrass plant response rating (0 to 100 scale)” value [26, 30] was 30, the “Horseweed plant response rating (0-100)” value [27, 29] was 10 and the “Horseweed plant response rating (0 to 100 scale)” value [27, 30] was 20.
